In paper PMC2905478 (Peptides, 2010):
Read-outs that look alike come from different tables or passages of the source. *1 amine or outer side, *2 acyl side, *3 side chain or, on linkers, in order; H or OH if unused. Where a SMILES comes first, the peptide text is derived from it. [ ]: non-standard residue; d: D form. X1 = O=C(C[C@@H](N[*:1])c1ccc(Cl)cc1)[*:2]; β3hPhg = O=C(C[C@@H](N[*:1])c1ccccc1)[*:2]; Nle = CCCC[C@H](N)C(=O)O

Experiments:
[1] = target: T1, hNMBR (Homo sapiens, UniProt P28336); test: Stimulation of [3H]IP generation; settings: for fold less potent than peptide #1 at activating PLC: hNMBR containing H1299 and Balb cells
T1 sequence (P28336 whole entry): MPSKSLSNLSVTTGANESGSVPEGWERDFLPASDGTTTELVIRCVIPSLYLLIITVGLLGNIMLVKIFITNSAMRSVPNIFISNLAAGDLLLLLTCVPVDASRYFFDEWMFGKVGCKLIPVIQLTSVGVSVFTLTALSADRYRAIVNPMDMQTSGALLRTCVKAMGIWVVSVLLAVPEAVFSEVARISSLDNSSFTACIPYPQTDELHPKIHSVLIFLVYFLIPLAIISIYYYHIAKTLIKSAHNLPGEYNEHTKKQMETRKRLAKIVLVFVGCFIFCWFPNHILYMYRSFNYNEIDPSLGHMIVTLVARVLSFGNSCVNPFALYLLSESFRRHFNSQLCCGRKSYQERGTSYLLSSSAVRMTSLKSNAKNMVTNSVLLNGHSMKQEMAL

[2] = target: T2, hGRPR (Homo sapiens, UniProt P30550); settings: binding, HuTu-80 cells, native hGRPR
T2 sequence (P30550 whole entry): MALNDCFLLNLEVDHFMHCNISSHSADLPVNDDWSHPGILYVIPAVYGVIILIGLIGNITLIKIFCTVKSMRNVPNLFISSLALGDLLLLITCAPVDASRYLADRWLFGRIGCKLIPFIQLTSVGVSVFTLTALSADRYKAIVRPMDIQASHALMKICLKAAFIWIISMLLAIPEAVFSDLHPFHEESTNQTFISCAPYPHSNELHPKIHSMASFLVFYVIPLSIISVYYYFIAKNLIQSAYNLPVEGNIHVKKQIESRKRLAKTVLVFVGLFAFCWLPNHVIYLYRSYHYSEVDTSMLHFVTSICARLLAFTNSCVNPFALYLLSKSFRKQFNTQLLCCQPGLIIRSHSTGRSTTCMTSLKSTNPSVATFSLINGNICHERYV

[3] = target: T1, hNMBR; settings: binding; hNMBR/H1299 and hNMBR/Balb cells
[4] = target: T3, hBRS-3 (Homo sapiens, UniProt P32247); settings: for affinities from binding studies for the hBRS-3 receptor, range over 3 cell lines: 3 hBRS-3 cell lines (NC-N417, Balb, H1299)
T3 sequence (P32247 whole entry): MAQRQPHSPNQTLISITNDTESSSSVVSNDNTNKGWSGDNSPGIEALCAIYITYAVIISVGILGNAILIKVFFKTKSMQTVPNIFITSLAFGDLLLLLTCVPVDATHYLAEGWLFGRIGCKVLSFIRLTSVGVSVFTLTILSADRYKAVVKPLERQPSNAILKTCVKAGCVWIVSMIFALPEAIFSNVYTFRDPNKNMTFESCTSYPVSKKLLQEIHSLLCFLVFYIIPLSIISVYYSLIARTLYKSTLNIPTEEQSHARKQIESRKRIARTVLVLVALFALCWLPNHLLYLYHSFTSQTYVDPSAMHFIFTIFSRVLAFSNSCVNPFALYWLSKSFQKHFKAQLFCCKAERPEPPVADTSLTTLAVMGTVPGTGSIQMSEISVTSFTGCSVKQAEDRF

[5] = target: T3, hBRS-3; settings: binding; hBRS-3 containing cells (H1299, Balb; Tables 2 and 3)
[6] = target: T2, hGRPR; test: Stimulation of [3H]IP generation; settings: for fold less potent than peptide #1 at activating PLC: hGRPR containing HuTu-80 and Balb cells
[7] = target: T3, hBRS-3; settings: for agonist efficacy for [3H]IP generation (full/partial agonist): each of the hBRS-3 containing cells, concentrations up to 10,000 nM; for fold less potent than peptide #1 at activating PLC: range over three hBRS-3 containing cells
[8] = target: T1, hNMBR; test: biochemical
[9] = target: T2, hGRPR; test: Stimulation of [3H]IP generation
[10] = target: T3, hBRS-3; settings: binding affinities
[11] = target: T1, hNMBR; test: biochemical; settings: IC50 (nM) hNMBR/H1299, half-maximal inhibition of binding
[12] = target: T1, hNMBR; test: Stimulation of [3H]IP generation
[13] = target: T3, hBRS-3; test: biochemical; settings: IC50 (nM) hBRS-3/N417, half-maximal inhibition of binding; 50 pM radioligand, 22 °C, 60 min

For `CCCC[C@H](NC(=O)[C@H](Cc1ccccc1)NC(=O)[C@H](Cc1c[nH]cn1)NC(=O)C[C@@H](NC(=O)[C@@H](NC(=O)[C@H](C)NC(=O)[C@H](Cc1c[nH]c2ccccc12)NC(=O)[C@H](CCC(N)=O)NC(=O)[C@H](N)Cc1ccc(O)cc1)C(C)C)c1ccc(Cl)cc1)C(N)=O` [Peptide 3, [DTyr^6, (R)-Apa^11-4Cl, Phe^13, Nle^14]Bn(6-14)] (H-[dY]QWAV[X1]HF[Nle]-NH2), the “fold less potent than peptide #1 at activating PLC” value [1] was greater than 1000 fold, the “fold lower affinity than GRP or peptide #1” value [2] was 750 fold and the “fold lower affinity than NMB (and peptide #1)” value [3] was 745–5900 fold. For the same molecule, the “affinities from binding studies for the hBRS-3 receptor, range over 3 cell lines” value [4] was “nM affinities”, the “fold lower affinity than peptide #1, range over hBRS-3 cell lines” value [5] was 2.5–17 fold and the “fold less potent than peptide #1 at activating PLC” value [6] was 123–270 fold. For the same molecule, the “agonist efficacy for [3H]IP generation (full/partial agonist)” value [7] was “none functioning as a partial agonist” and the “fold less potent than peptide #1 at activating PLC” value [7] was 3.3–10 fold.

With `CCCC[C@H](NC(=O)[C@H](Cc1ccccc1)NC(=O)[C@H](Cc1c[nH]cn1)NC(=O)C[C@@H](NC(=O)[C@@H](NC(=O)[C@H](C)NC(=O)[C@H](Cc1c[nH]c2ccccc12)NC(=O)[C@H](CCC(N)=O)NC(=O)[C@H](N)Cc1ccc(O)cc1)C(C)C)c1ccccc1)C(N)=O` [Peptide 2, [DTyr^6, (R)-Apa^11, Phe^13, Nle^14]Bn(6-14)] (H-[dY]QWAV[β3hPhg]HF[Nle]-NH2) the IC50 [8] was 158 ± 8 nM, the EC50 [1] was 195 ± 11 nM and the “fold less potent than peptide #1 at activating PLC” value [1] was greater than 250 fold. For the same molecule, the “fold lower affinity than GRP or peptide #1” value [2] was 475 fold, the “fold lower affinity than NMB (and peptide #1)” value [3] was 200–1100 fold and the “affinities from binding studies for the hBRS-3 receptor, range over 3 cell lines” value [4] was “nM affinities”. For the same molecule, the “selectivity for hBRS-3 in NCI-N417 cell over hGRPR natively expressed in Hutu cells” value ([4]; binding affinities) was 13 fold, the “selectivity for hBRS-3 natively expressed in NCI-N417 cells than hNMBR expressed in NCI-H1299 cells” value ([4]; binding affinities) was 15 fold and the “fold lower affinity than the universal ligand, peptide #1” value ([4]; binding, native hBRS-3 in NCI-N417 cells) was 3 fold. The “selectivity for hBRS-3 over hGRPR in the different cells based on binding affinities” value ([4]; range over cells) was 13–32 fold, the “selectivity for hBRS-3 over the hNMBR based on binding affinities” value ([4]; range over cells) was 15 to 46 fold and the EC50 [9] was 58 ± 2 nM. For the same molecule, the “fold lower affinity than peptide #1, range over hBRS-3 cell lines” value [5] was 4–49 fold, the “selectivity for hBRS-3 expressed in Balb cells over hGRPR in the same cells” value [10] was 32 fold and the “selectivity for hBRS-3 expressed in Balb cells than hNMBR in the same cells” value [10] was 47 fold. The IC50 [11] was 66.1 ± 3.4 nM, the EC50 [6] was 318 ± 25 nM and the “fold less potent than peptide #1 at activating PLC” value [6] was 10–25 fold. For the same molecule, the EC50 [12] was 38 ± 1.2 nM, the “selectivity (PLC potency) for hBRS-3 cells over hGRPR containing cells” value ([7]; Tables 2-4) was 10 to 26 fold and the “agonist efficacy for [3H]IP generation (full/partial agonist)” value [7] was “none functioning as a partial agonist”. For the same molecule, the “fold less potent than peptide #1 at activating PLC” value [7] was 4–14 fold and the IC50 [13] was 4.3 ± 0.2 nM.
